This note sets out measurements from PMC6757289, “Design and Characterization of SGK3-PROTAC1, an Isoform Specific SGK3 Kinase PROTAC Degrader” (ACS Chemical Biology, 2019).

Test [1] addresses p38 beta MAPK (Homo sapiens, UniProt Q15759). Nature of the test: kinase profiling panel. The note with it: read-out: % Activity Remaining. It counts as biochemical. From the text: (§1) Protein kinase profiling against a Dundee panel of 140 protein kinases was undertaken at the International Centre for Protein Kinase Profiling. The result for each kinase was presented as a mean kinase activity of the reaction taken in triplicate relative to a control sample treated with DMSO. Assay conditions and abbreviations are available at http://www.kinase-screen.mrc.ac.uk.

Test [2] addresses RSK2 (Homo sapiens, UniProt P51812). As to the kind of experiment: kinase profiling panel. The note with it: read-out: % Activity Remaining. The format is biochemical.
From the text: as §1

For test [3], the target named is MINK1 (Homo sapiens, UniProt Q8N4C8). As to the kind of experiment: kinase profiling panel. It counts as biochemical. Conditions: read-out: % Activity Remaining.
From the text: as §1

Test [4] has as its target T1, SGK3 (Homo sapiens, UniProt Q96BR1).
T1 sequence (Q96BR1 1-496): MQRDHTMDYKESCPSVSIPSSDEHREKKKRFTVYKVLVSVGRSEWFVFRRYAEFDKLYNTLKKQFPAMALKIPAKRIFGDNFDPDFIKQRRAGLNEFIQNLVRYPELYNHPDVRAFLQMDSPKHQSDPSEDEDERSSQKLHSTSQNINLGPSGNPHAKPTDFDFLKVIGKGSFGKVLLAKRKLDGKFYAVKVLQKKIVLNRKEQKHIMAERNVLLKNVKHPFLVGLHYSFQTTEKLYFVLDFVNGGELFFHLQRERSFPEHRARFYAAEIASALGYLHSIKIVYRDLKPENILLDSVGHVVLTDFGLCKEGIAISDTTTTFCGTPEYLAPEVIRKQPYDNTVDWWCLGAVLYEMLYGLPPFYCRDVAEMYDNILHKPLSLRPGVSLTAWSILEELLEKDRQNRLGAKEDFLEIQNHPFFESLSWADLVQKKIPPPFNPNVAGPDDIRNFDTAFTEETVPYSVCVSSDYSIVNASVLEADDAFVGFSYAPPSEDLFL
As to the kind of experiment: SGK3 degradation in ZR-75-1 cells, immunoblot. The format is cell-based. The note with it: for SGK3 expression: ZR-75-1, 5 days 1 μM GDC0941 or AZD5363, 0.3 μM for 5 days or 8 h. The method, then: Figure 3 Characterization of cellular activities of SGK3-PROTAC1 and cisSGK3-PROTAC1. (A) HEK293 cells were first treated for 8 h with 0.03–3 μM SGK3-PROTAC1 and cisSGK3-PROTAC1. One hour before lysis, cells were treated with 3 μM AZD5363. Lysates were subjected to immunoblot analysis with the indicated antibodies. […] Lysates were subjected to immunoblot analysis with the indicated antibodies. (C) HEK293 cells were treated for up to 48 h with SGK3-PROTAC1 (0.3 μM), and lysates were analyzed by immunoblot analysis using the indicated antibodies. (D) HEK293 cells were treated for 24 h with SGK3-PROTAC1. Cells were washed three times with DMEM to wash out the compound, and recovery of SGK3 expression protein was analyzed by immunoblot analysis. (E–G) As in A except that CAMA-1 (E), ZR-75-1 (F), and JIMT-1 (G) cells were employed rather than HEK293 cells.
Figure 5 SGK3-PROTAC1-mediated degradation of SGK3 inhibits Akt-independent activation of mTORC1 in cancer cell lines treated with Akt or PI3K inhibitors. CAMA-1 (A, C) or ZR-75-1 (B, D) were treated for 5 days with 1 μM GDC0941 (A, B) or 1 μM AZD5363 (C, D). Cells were treated with the compounds indicated for either 5 days or 8 h before lysis; cells were treated with the compounds indicated. Cell lysates were subject to immunoblot analysis with the indicated antibodies.
All cell treatments were carried out as described in figure legends, to a final DMSO concentration of 0.1% (v/v). Lysates were quantified. Immunoblotting was performed using standard procedures, described in brief below. Lysate concentration was quantified by Bradford Assay, and 10 μg of lysate was loaded in the LDS sample buffer for SDS-PAGE electrophoresis on Novex 4–12% Bis–Tris gels. Proteins were electrophoretically transferred onto nitrocellulose membranes (Amersham Protran 0.45 μm NC; GE Healthcare) at 80 V for 80 min on ice in transfer buffer. Transferred membranes were blocked with 5% (w/v) nonfat dry milk dissolved in TBS-T [20 mM Tris/HCl, pH 7.5, 150 mM NaCl, and 0.1% (v/v) Tween 20] at RT for 30 min, before incubation with the primary antibody overnight at 4 °C. The signal was produced with near-infrared secondary antibodies and detected using a Licor Biosciences Odyssey System, and the signal was quantified in Image Studio Lite.
(In general: A western blot detects proteins with antibodies after separation by electrophoresis.)

Like-named read-outs stand apart in the source and are kept apart here.

Chain of p38 beta MAPK (Q15759 whole entry): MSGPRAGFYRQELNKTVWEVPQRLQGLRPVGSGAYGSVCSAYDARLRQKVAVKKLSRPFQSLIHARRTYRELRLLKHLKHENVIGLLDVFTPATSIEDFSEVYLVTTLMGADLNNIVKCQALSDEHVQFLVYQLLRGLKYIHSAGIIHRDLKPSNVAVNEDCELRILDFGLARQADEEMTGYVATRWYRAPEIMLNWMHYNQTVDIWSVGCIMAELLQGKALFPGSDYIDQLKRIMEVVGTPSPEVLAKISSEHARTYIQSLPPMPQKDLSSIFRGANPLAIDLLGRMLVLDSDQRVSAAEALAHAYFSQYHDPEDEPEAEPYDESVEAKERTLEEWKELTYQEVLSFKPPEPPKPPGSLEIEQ
Chain of MINK1 (Q8N4C8 whole entry): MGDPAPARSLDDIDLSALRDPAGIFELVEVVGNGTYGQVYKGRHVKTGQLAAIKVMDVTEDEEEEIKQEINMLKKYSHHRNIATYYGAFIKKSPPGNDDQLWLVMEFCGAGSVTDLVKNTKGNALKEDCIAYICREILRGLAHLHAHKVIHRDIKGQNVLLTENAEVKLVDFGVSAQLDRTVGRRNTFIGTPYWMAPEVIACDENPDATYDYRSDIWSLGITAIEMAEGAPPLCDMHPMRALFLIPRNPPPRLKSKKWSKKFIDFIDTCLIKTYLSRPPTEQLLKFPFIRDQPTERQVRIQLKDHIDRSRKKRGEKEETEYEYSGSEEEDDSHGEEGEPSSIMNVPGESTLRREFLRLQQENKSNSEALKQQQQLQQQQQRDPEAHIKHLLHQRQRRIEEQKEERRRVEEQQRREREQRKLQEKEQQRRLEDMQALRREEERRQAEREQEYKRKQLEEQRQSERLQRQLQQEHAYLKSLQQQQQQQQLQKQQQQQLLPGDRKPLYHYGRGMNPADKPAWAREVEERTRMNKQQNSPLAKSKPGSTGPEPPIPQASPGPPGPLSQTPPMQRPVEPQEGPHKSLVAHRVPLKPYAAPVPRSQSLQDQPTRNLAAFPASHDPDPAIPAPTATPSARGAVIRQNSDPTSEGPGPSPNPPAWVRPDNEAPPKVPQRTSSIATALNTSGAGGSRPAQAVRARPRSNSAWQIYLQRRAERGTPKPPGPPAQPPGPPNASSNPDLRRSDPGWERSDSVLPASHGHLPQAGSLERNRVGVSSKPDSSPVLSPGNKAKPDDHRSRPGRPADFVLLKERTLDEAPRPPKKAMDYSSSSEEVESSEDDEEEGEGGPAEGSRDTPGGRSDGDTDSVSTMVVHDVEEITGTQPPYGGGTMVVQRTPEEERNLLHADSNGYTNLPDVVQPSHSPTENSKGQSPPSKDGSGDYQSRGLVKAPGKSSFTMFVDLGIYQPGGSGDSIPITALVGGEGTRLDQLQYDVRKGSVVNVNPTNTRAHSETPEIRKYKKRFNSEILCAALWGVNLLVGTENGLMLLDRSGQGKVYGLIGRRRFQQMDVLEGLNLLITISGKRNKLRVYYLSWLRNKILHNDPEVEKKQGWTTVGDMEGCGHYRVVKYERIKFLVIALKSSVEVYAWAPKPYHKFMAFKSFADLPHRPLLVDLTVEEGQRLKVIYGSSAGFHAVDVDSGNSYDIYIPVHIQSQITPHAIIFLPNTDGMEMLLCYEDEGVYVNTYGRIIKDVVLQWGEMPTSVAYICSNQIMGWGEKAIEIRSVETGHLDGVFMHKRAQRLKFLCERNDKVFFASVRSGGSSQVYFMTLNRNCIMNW
Chain of RSK2 (P51812 whole entry): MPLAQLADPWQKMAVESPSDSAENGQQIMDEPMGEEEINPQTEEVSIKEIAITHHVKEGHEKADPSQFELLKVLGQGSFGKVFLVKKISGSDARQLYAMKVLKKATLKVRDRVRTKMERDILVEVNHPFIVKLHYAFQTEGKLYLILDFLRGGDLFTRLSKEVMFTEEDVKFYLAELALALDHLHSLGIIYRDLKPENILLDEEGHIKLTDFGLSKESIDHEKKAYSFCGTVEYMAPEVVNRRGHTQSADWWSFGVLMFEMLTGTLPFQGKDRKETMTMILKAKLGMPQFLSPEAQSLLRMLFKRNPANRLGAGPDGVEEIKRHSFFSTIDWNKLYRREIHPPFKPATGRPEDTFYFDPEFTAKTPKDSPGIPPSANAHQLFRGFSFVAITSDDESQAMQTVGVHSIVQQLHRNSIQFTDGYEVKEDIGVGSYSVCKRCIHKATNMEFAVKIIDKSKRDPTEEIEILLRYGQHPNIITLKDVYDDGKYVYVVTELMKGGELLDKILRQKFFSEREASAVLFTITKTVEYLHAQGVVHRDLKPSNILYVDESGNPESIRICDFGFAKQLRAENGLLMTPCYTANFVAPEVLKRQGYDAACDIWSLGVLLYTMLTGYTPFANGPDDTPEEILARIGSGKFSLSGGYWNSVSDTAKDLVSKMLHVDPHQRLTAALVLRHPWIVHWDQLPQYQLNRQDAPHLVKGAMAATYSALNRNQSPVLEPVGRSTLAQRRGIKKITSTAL

The remaining activity is the signal under treatment as a percentage of the control signal. On to `COc1ccc(Cl)c(S(=O)(=O)Nc2ccc(-c3nc(OC[C@H]4CNCCO4)c4c(C)n[nH]c4n3)cc2)c1` [290-R, reference compound], for which the figures for the remaining activity at 1 µM in test [1], in test [2] and in test [3] were 99%, 24% and 101%, respectively.

For `Cc1ccc(F)c(S(=O)(=O)Nc2ccc(-c3nc(OC[C@H]4CNCCO4)c4cn[nH]c4n3)cc2)c1` [308-R, reference compound], the remaining activity at 1 µM in test [1] was found to be 116%; in test [2], 24%; in test [3], 83%.

`Cc1ccc(F)c(S(=O)(=O)Nc2ccc(-c3nc(OC[C@H]4CN(CCCCCCOCCOCCOCC(=O)N[C@H](C(=O)N5C[C@H](O)C[C@H]5C(=O)NCc5ccc(-c6scnc6C)cc5)C(C)(C)C)CCO4)c4cn[nH]c4n3)cc2)c1` [SGK3-PROTAC1]: the remaining activity at 1 µM in test [1] (1 µM) was determined as 107%; in test [2] (1 µM) it was 120%; in test [3] (1 µM), 115%. Also, the “concentration inducing degradation of SGK3” value in test [4] (ZR-75-1, 8 h) is > 0.1 µM. Besides, the SGK3 expression entry in test [4] was “substantially reduced”.

As for `Cc1ccc(F)c(S(=O)(=O)Nc2ccc(-c3nc(OC[C@H]4CN(CCCCCCOCCOCCOCC(=O)N[C@H](C(=O)N5C[C@@H](O)C[C@H]5C(=O)NCc5ccc(-c6scnc6C)cc5)C(C)(C)C)CCO4)c4cn[nH]c4n3)cc2)c1` [cisSGK3-PROTAC1], the remaining activity at 1 µM is 112% in test [1] (1 µM), 109% in test [2] (1 µM) and 116% in test [3] (1 µM). In test [4] (ZR-75-1, 8 h, 0.03–3 μM), the “degradation of SGK3” value was “no impact”. Also, in test [4], the SGK3 expression result is on record as “no significant effect”.
